The results in this text go back to patent US20110177950A1, “Imidazole and Triazole Compounds, Their Use and Agents Containing the Same” (priority 2008, published 2011).

In one assay the test system is Botrytis cinerea. Briefly: Comparison with the prior art: C1 activity against gray mold pathogen in the microtiter test. The class given is cell-based. As to conditions: day 7 after inoculation, 405 nm.
A further assay concerns Phakopsora pachyrhizi. Briefly: Curative activity against soybean rust (greenhouse, Example G1). In kind it is in vivo. As to conditions: soybean seedlings, curative spray 300 ppm two days after inoculation, assessed after further 10 days; untreated 90% infected. As to the method:
The active compounds were prepared separately as a stock solution comprising 25 mg of active compound which was made up to 10 ml using a mixture of acetone and/or DMSO and the emulsifier Uniperol® EL (wetting agent having emulsifying and dispersing action based on ethoxylated alkylphenols) in a volume ratio of solvent/emulsifier of 99/1. The mixture was then made up to 100 ml with water. This stock solution was diluted with the solvent/emulsifier/water mixture described to the active compound concentration stated below. Alternatively, the active compounds were used as commercially finished formulation and diluted with water to the stated active compound concentration.
Curative activity against soybean rust caused by Phakopsora pachyrhizi Leaves of potted soybean seedlings were inoculated with a spore suspension of soybean rust (Phakopsora pachyrhizi). The pots were then placed in a chamber with high atmospheric humidity (90 to 95%) and at 23 to 27° C. for 24 hours. During this time, the spores germinated and the germ tubes penetrated into the leaf tissue. The infected plants were then cultivated further in a greenhouse at temperatures between 23 and 27° C. and 60 to 80% relative atmospheric humidity. […] The extent of the rust fungus development on the leaves was then determined visually in % infection.

`CC(C)(C)C(O)C(C/C=C/c1ccccc1F)n1cncn1` (stereo not drawn): the “Growth (%) at 8 ppm C1” value with Botrytis cinerea is 16%.

Take `CC(=CCC(C(O)C(C)(C)C)n1cncn1)c1ccc(F)cc1F` (mixture of isomers) [I.A9]: the “rust fungus development on the leaves in % infection” value in the assay on Phakopsora pachyrhizi is recorded as 0%.

With `CC(C)(C)C(O)C(C/C=C/c1ccccc1)n1cncn1` (stereo not drawn) [reference compound], the “Growth (%) at 8 ppm C1” value with Botrytis cinerea was found to be 84%.
